pIC50: −log10 of the molar value.
Target: T1, JAK2 JH1JH2 V617F kinase (Homo sapiens, UniProt O60674, V617F)
T1 construct: JAK2 JH1JH2 V617F kinase; inferred from Ni-NTA capture and imidazole elution; made in house; host or cells: Sf9 insect cells
Experiment: JAK2 Luminescence-Based ATP Depletion Enzyme Assay (JAK2-V617F)
Format: biochemical
Settings: 10 μM ATP
Protocol: JAK2 Luminescence-Based ATP Depletion Enzyme Assay
Materials: JAK3tide peptide substrate=GGEEEEYFELVKKKK (Biopeptide, San Diego, Calif.), ATP (Sigma Cat#A-3377, FW=551), HEPES buffer, pH 7.6, 10% Brij 35 (Calbiochem Cat#203728), MgCl2, Staurosporine (Streptomyces sp. Sigma Cat#85660-1MG), white Corning (Costar) 384-well flat bottom plate (VWR Cat#29444-088), JAK2 KD (kinase domain) or JAK2 JH1JH2 V617F kinase (see below), Kinase-Glo™ (Promega Cat#V6712).
Stock Solutions: 5 mM JAK3tide peptide (9.86 mg/ml in 100 mM HEPES, pH 7.6), stored at −20° C.; 100 mM HEPES buffer, pH 7.6, 10% Brij 35; 10 mM ATP (5.51 mg/ml in 100 mM HEPES, pH 7.6) stored at −20° C. (diluted 50 μl into total of 10 ml 100 mM HEPES, pH 7.6, daily=50 μM ATP working stock); 100 mM MgCl2; 200 μM Staurosporine, 2× Kinase-Glo™ reagent (made fresh or stored at −20° C.).
Standard Assay Conditions for 384-well format (20 μl kinase reaction, 40 μl detection reaction): 10 mM MgCl2; 0.1 mM JAK3tide peptide (or, 0.5 mM JAK3tide peptide for JAK2 JH1JH2 V617F assay); 1 μl test compound (in 100% DMSO); 0.4 μg/ml JAK2 KD kinase or 12 μg/ml JAK2 JH1JH2 V617F kinase; 10 μM ATP; 100 mM HEPES+0.01% Brij, pH 7.6. Positive controls contained 5% DMSO with no test compound. Negative controls contained 10 μM staurosporine. The kinase reactions were initiated at time t=0 by the addition of ATP. Kinase reactions were incubated at 21-23° C. for 30 min, after which 20 μl of Kinase-Glo™ reagent were added to each well to quench the kinase reaction and initiate the luminescence reaction. After a 20 min incubation at 21-23° C., the luminescence was detected in a plate-reading luminometer (Tecan Ultra Evolution).
The pellet of Sf9 insect cells produced from a 6 L expression of Jak2 was resuspended in a buffer containing 50 mM Tris-HCl pH 8.5, 250 mM NaCl, 5% Glycerol, 0.2% β-octylglucoside, 5 mM β-mercaptoethanol (or with ligand added to the buffer eg. 5 mM ATP and 10 mM MgCl2; 0.05 mM compound of the invention) in a volume of approximately 40 mL per 1 L of original culture. One tablet of Roche Complete, EDTA-free protease inhibitor cocktail (Cat. #1873580) was added per 1 L of original culture. The suspension was then stirred for 1 hour at 4° C. Debris was removed by centrifugation for 30 minutes at 39,800 g at 4° C. The supernatant was decanted into a 500 mL beaker and 10 mL of 50% Qiagen Ni-NTA Agarose (Cat. #30250) pre-equilibrated in 50 mM Tris-HCl pH 8.5, 250 mM NaCl, 5% Glycerol, 0.2% β-octylglucoside, 5 mM β-mercaptoethanol was added and stirred for 30 minutes at 4° C. The sample was poured through a drip column at 4° C. and washed with 10 column volumes (CV) of 50 mM Tris-HCl pH 8.5, 250 mM NaCl, 5% Glycerol, 0.2% β-octylglucoside, 5 mM β-mercaptoethanol. The protein was eluted in 5 mL fractions using 5 CV of the same buffer containing 250-500 mM Imidazole. Fractions were pooled by SDS-PAGE analysis and the protein concentration determined by a Bradford assay. 5 mM TCEP was added to the pool and the protein sample was concentrated to ˜8 mL by centrifugation in an Amicon Ultra-15 10,000 Da MWCO centrifugal filter unit (Cat. #UFC901024). The concentrated protein was applied to a GE Healthcare HiLoad 16/60 Superdex 75 or 200 prep grade column (Cat. #17-1068-01, Cat. #17-1069-01) equilibrated in 20 mM Tris-HCl pH 8.5, 250 mM NaCl, and 1 mM DTT. Fractions were run on a SDS-PAGE gel and the cleanest fractions were pooled. The protein was concentrated to approximately 6.5-10 mg/mL. Samples in the final buffer (20 mM Tris-HCl pH 8.5, 250 mM NaCl, 1 mM DTT; [or with ligand added eg. 2 mM ATP/5 mM MgCl2 or 0.05 mM compound of the invention]) are delivered fresh to crystallization and stored at 4° C. or flash frozen in liquid nitrogen (as 120 μL aliquots) and stored at −80° C.

T1 sequence (O60674 536-1132 V617F limits assumed): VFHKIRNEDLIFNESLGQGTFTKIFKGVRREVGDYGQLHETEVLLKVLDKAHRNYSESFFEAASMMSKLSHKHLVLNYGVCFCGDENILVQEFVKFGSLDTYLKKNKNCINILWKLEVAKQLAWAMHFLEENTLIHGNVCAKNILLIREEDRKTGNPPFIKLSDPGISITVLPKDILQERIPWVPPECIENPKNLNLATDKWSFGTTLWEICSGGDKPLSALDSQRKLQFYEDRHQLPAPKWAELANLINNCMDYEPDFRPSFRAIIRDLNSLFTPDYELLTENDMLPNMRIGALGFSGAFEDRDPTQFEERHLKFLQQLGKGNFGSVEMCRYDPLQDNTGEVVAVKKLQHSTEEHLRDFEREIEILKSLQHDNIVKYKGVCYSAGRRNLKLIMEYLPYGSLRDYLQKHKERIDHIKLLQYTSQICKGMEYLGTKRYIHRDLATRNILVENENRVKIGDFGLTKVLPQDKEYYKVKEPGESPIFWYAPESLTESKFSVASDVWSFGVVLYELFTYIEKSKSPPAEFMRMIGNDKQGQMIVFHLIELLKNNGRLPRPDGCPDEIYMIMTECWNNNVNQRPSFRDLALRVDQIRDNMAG

pIC50	Compound
> 6.30	CCN(CCC#N)C(=O)c1ccc(-c2ccnc(Nc3cccc(C(C)O)c3)n2)s1 (centres unmarked)
> 6.30	CC(O)c1cccc(Nc2nccc(-c3ccc(-c4cccc(CC#N)c4)s3)n2)c1 (centres unmarked)
> 6.30	CC(O)c1cccc(Nc2nccc(-c3ccc(S(=O)(=O)N(C)C)s3)n2)c1 (centres unmarked)
> 6.30	CN(C)C1CCN(c2cccc(Nc3nccc(-c4ccc(C(=O)NCc5ccco5)s4)n3)c2)C1 (centres unmarked)
> 6.30	CCN(CCC#N)S(=O)(=O)c1ccc(-c2ccnc(Nc3cccc(C(C)O)c3)n2)s1 (centres unmarked)
> 6.30	CCN(CCC#N)S(=O)(=O)c1ccc(-c2ccnc(Nc3cccc(C)c3)n2)s1
> 6.30	O=C(NCc1ccccc1)c1ccc(-c2ccnc(Nc3ccc(CCO)cc3)n2)s1
> 6.30	C[C@@H](NC(=O)c1ccc(-c2ccnc(Nc3cccc(CN4CCC(O)CC4)c3)n2)s1)c1ccccc1

Source: US7977481B2, “Pyrimidinyl-thiophene kinase modulators” (SGX Pharmaceuticals, Inc., priority 2005, dated 2011)
